This is an account of results in US20060128681A1, “Novel rho inhibitors” (priority 2002, published 2006).

Read-outs that look alike come from different tables or passages of the source.

The target of assay [1] is T1, rho transcription termination factor (Escherichia coli, UniProt P0AG30). Nature of the assay: Rho poly(C)-dependent ATPase assay, inhibition by metal chelates and bicyclomycin. Particulars: (DL)DTT 0.1-0.3 mM alone or equimolar with metal chloride, in presence of MgCl2. It counts as biochemical, E. coli. Details: made in house; host or cells: E. coli strain AR120 with plasmid p39-ASE. The protocol:
Rho poly(C)-dependent ATPase assay.
The reactions were analyzed as described above.

Assay [2] concerns the target T1, rho transcription termination factor. Conditions: for Vmax(app) / % activity (Vmax or Vpeak) / % efficiency (Vmax/KM or Vpeak/KM) / Vpeak(app): Mg^2+-free; for Vmax(app) / Vpeak(app): from activation curves; for % activity (Vmax or Vpeak) / % efficiency (Vmax/KM or Vpeak/KM): relative to Mg^2+; for metal activation profile: absence of MgCl2, 1.9-4000 μM metal; for n (Hill): nonlinear regression of velocity curves; for effect on rho poly(C)-dependent ATP hydrolysis in the absence of MgCl2: (DL)DTT-free buffer; for peak velocity / total metal concentration at peak velocity: absence of MgCl2, FIG. 8.
Protocol: Rho poly(C)-dependent ATPase assay. […] The ribonucleotide-stimulated ATPase activity of rho at 32° C. was assayed by the amount of ^32P-labeled inorganic phosphate hydrolyzed from ATP after separation on PEI-TLC plates (prerun with water and dried) using 0.75 M potassium phosphate (pH 3.5) as the mobile phase. Reactions were initiated by adding ATP (varying concentrations) and 0.5 μCi [γ-^32P] ATP to the solution containing 40 mM Tris-HCl (pH 7.9), 50 mM KCl, 100 nM or 250 nM poly(C), 100 or 250 nM rho (monomer) and MgCl2 (1 mM or 10 mM). The TLC plates were exposed to PhosphorImager plates (Fuji and Molecular Dynamics) (3 h), scanned on a Storm 860 PC PhosphorImager and analyzed using Molecular Dynamic's ImageQuant 5.0. The initial rates of the reactions were determined by plotting the amount of ATP hydrolyzed against time. Each reaction was performed in duplicate and the results averaged.
A. Divalent Metal Activation of Rho in the Absence of MgCl2. […] For each metal, wild-type rho was pretreated with 20 mM EDTA to deplete the protein of residual metals and removed the excess EDTA and the metal•EDTA complex by a spin column.

Assay [3] has the same target. Particulars: for IC50: read-out: I50, rho poly(C)-dependent ATP hydrolysis; for rho inhibition at 4000 μM: 4000 μM metal. The protocol: Rho poly(C)-dependent ATPase assay. See, generally, Sharp et al., (1983) A kinetic mechanism for the poly(C)-dependent ATPase of the Escherichia coli transcription termination protein, rho, J. Biol. Chem. 258, 3482-3486. The ribonucleotide-stimulated ATPase activity of rho at 32° C. was assayed by the amount of ^32P-labeled inorganic phosphate hydrolyzed from ATP after separation on PEI-TLC plates (prerun with water and dried) using 0.75 M potassium phosphate (pH 3.5) as the mobile phase. Reactions were initiated by adding ATP (varying concentrations) and 0.5 μCi [γ-^32P] ATP to the solution containing 40 mM Tris-HCl (pH 7.9), 50 mM KCl, 100 nM or 250 nM poly(C), 100 or 250 nM rho (monomer) and MgCl2 (1 mM or 10 mM). The TLC plates were exposed to PhosphorImager plates (Fuji and Molecular Dynamics) (3 h), scanned on a Storm 860 PC PhosphorImager and analyzed using Molecular Dynamic's ImageQuant 5.0. The initial rates of the reactions were determined by plotting the amount of ATP hydrolyzed against time. Each reaction was performed in duplicate and the results averaged.
B. Divalent Metal Activation of Rho in the Presence of MgCl2. To provide additional information concerning the roles of divalent metals in rho activation, the poly(C)-dependent assays were repeated in the presence of 10 mM MgCl2 and varying concentrations (10, 20, 40, 80, 125, 160, 250, 320, 500, 640 μM) of the divalent metals.

A further assay has as its target E. coli RecA (Escherichia coli, UniProt P0A7G6). The experiment in a line: RecA poly(dT)-dependent ATP hydrolysis. It counts as biochemical. Conditions: bicyclomycin 0-400 μM; Zn-(L)DTT equimolar. The protocol: The validity of some of these new leads has been questioned, and attention is now focused on determining the inhibition pathway for these compounds and whether the inhibitors show enzyme specificity. McGovern et al., (2001) A common mechanism underlying promiscuous inhibitors from virtual and high-throughput screening, J. Med. Chem. 45, 1712-1722. Compounds that show nonspecific interaction have been defined as “promiscuous inhibitors.” The inhibitor specificity of Zn-(L)DTT complexes was tested. […] Next, the time dependency for chelate inhibition was examined because a well-behaved, reversible inhibitor is typically not affected by incubation time. McGovern et al., (2001). […] The effect of Zn-(L)DTT solutions on E. coli RecA poly (dT)-dependent ATP hydrolysis was determined.

Assay [4] deals with T1, rho transcription termination factor. On the set-up: made in house; host or cells: E. coli strain AR120 with plasmid p39-ASE. Conditions: poly(dC)-ribo(C)10 ATPase assay, literature (Magyar 1996); cited from earlier work.
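Wherever % activity (Vmax or Vpeak) is given: Poly(C)-dependent ATP hydrolysis by wild-type rho with other divalent metals in place of magnesium, radiolabeled ATP at varied levels, TLC phosphorimaging, initial rates from hydrolyzed ATP versus time.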
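Wherever % efficiency (Vmax/KM or Vpeak/KM) is given: Poly(C)-dependent ATP hydrolysis by wild-type rho with other divalent metals in place of magnesium, radiolabeled ATP at varied levels, TLC phosphorimaging, initial rates from hydrolyzed ATP versus time.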
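Wherever Vmax(app) is given: Poly(C)-dependent ATP hydrolysis by wild-type rho with other divalent metals in place of magnesium, radiolabeled ATP at varied levels, TLC phosphorimaging, initial rates from hydrolyzed ATP versus time.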
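Wherever metal activation profile is given: Poly(C)-dependent ATP hydrolysis by wild-type rho with other divalent metals in place of magnesium, radiolabeled ATP at varied levels, TLC phosphorimaging, initial rates from hydrolyzed ATP versus time.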

T1 sequence (P0AG30 whole entry): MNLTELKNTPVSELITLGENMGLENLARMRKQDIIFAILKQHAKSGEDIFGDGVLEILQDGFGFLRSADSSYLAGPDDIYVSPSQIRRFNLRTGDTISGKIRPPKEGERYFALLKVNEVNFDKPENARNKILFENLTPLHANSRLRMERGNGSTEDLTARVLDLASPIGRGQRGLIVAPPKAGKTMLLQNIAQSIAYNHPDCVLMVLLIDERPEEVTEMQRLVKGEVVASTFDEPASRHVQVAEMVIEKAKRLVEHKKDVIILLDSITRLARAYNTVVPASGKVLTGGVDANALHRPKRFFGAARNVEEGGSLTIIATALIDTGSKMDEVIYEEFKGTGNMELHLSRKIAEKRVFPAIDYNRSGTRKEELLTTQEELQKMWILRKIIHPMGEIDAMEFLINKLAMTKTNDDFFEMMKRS
Sequence of E. coli RecA (P0A7G6 2-353): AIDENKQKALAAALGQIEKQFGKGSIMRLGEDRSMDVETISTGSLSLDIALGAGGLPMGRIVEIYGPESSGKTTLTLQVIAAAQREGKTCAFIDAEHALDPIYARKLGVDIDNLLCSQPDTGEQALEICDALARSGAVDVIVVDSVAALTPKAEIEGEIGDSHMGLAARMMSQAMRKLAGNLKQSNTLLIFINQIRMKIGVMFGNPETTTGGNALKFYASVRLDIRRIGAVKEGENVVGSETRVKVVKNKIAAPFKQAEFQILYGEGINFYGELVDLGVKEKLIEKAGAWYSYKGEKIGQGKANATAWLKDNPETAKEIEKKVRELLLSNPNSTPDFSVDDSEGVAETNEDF

In the case of `OC(CS)C(O)CS` (racemic) [(DL)DTT, dithiothreitol], the “effect on rho poly(C)-dependent ATP hydrolysis” value in assay [1] is recorded as “did not inactivate the enzyme”.
`[Be+2].[Cl-].[Cl-]` [Be^2+]: in assay [2], the “Vmax(app)” value was 0.21 mol/min/mg, the “% activity (Vmax or Vpeak)” value is reported as 2% and the metal activation profile entry is on record as “did not catalyze ATP hydrolysis”. In addition, the “activity at 100 μM” value in assay [3] (100 μM BeCl2, 10 mM MgCl2) was “almost complete loss of activity”. In assay [3] (10 mM MgCl2), the “effect on ATP hydrolysis rate in the presence of MgCl2” value (from here on “effect on ATP hydrolysis rate”) is reported as “inhibited” and the IC50 was determined as 63 µM.
As to `[Ca+2]` [Ca^2+], in assay [2], the “Vmax(app)” value came to 3.13 mol/min/mg, the “% activity (Vmax or Vpeak)” value is listed as 25%, the “% efficiency (Vmax/KM or Vpeak/KM)” value amounted to 74% and the metal activation profile result is “Michaelis-Menten kinetics”. The “n (Hill)” value in assay [2] was 1. Further, the “effect on ATP hydrolysis rate” value in assay [3] (10 mM MgCl2) is “negligible effects”.
Consider `[Cd+2]` [Cd^2+], for which, in assay [2], the “effect on rho poly(C)-dependent ATP hydrolysis in the absence of MgCl2” value (“effect … in the absence of MgCl2” below) is reported as “activated”, the “Vpeak(app)” value is 4.74 mol/min/mg, the “% activity (Vmax or Vpeak)” value was determined as 39% and the “% efficiency (Vmax/KM or Vpeak/KM)” value amounted to 20%. Moreover, in assay [2], the metal activation profile entry is “peak velocities”, the peak velocity turned out to be 4.8 µmol/min/mg, the “total metal concentration at peak velocity” value (“total metal concentration” for short) turned out to be 65 µM and the “n (Hill)” value came to 4.6. In addition, the “effect on ATP hydrolysis rate” value in assay [3] (10 mM MgCl2) was “negligible effects”.
For the molecule `[Co+2]` [Co^2+], in assay [2], the “Vmax(app)” value was 7.65 mol/min/mg, the “% activity (Vmax or Vpeak)” value worked out at 62%, the “% efficiency (Vmax/KM or Vpeak/KM)” value was 61% and the metal activation profile entry was “Michaelis-Menten kinetics”. Besides, the “n (Hill)” value in assay [2] stood at 1. In addition, the “effect on ATP hydrolysis rate” value in assay [3] (10 mM MgCl2) is “negligible effects”.
As to `[Cu+2]` [Cu^2+], in assay [2], the “Vmax(app)” value turned out to be 1.54 mol/min/mg, the “% activity (Vmax or Vpeak)” value was 13%, the “% efficiency (Vmax/KM or Vpeak/KM)” value is reported as 39% and the metal activation profile result is on record as “Michaelis-Menten kinetics”. In assay [2], the “n (Hill)” value stood at 1. In assay [3] (10 mM MgCl2), the “effect on ATP hydrolysis rate” value is “inhibited” and the loss of activity is roughly 30%.
Regarding `[Hg+2]` [Hg^2+], in assay [2], the “Vmax(app)” value turned out to be 0.78 mol/min/mg, the “% activity (Vmax or Vpeak)” value is 6%, the “% efficiency (Vmax/KM or Vpeak/KM)” value came to 29% and the metal activation profile entry is given as “Michaelis-Menten kinetics”. The “n (Hill)” value in assay [2] is recorded as 1. In assay [3] (10 mM MgCl2), the “rho inhibition at 4000 μM” value is recorded as roughly 50% and the “effect on ATP hydrolysis rate” value is recorded as “inhibited”.
`[Mg+2]` [Mg^2+]: in assay [2], the “efficiency (Vmax/KM or Vpeak/KM) relative to Co^2+” value was 1.5 times, the “Vmax(app)” value stood at 12.3 mol/min/mg, the “% activity (Vmax or Vpeak)” value was found to be 100% and the “% efficiency (Vmax/KM or Vpeak/KM)” value stood at 100%. For the same molecule, in assay [2], the metal activation profile result is reported as “Michaelis-Menten kinetics” and the “n (Hill)” value is reported as 1.
For the molecule `[Cl][Mn][Cl]` [Mn^2+], in assay [2], the “efficiency (Vmax/KM or Vpeak/KM) relative to Co^2+” value is listed as 1.6 times, the “effect … in the absence of MgCl2” value is reported as “activated”, the “Vpeak(app)” value came to 11.9 mol/min/mg and the “% activity (Vmax or Vpeak)” value came out at 97%. In assay [2], the “% efficiency (Vmax/KM or Vpeak/KM)” value stood at 89%, the metal activation profile result is listed as “peak velocities”, the peak velocity was 11.9 µmol/min/mg and the “total metal concentration” value was 250 µM. The “n (Hill)” value in assay [2] worked out at 1. Also, the “% of maximum activity at 4000 μM” value in assay [2] (4000 μM total metal) amounted to 10%.
Turning to `[Cl][Ni][Cl]` [Ni^2+], in assay [2], the “effect … in the absence of MgCl2” value is given as “activated”, the “Vmax(app)” value was determined as 4.79 mol/min/mg, the “% activity (Vmax or Vpeak)” value turned out to be 39% and the “% efficiency (Vmax/KM or Vpeak/KM)” value is listed as 29%. Further, in assay [2], the metal activation profile entry is “sigmoidal activation pattern” and the “n (Hill)” value amounted to 2.9. Besides, in assay [3] (10 mM MgCl2), the “effect on ATP hydrolysis rate” value was “negligible effects”.
In the case of `[Sr+2]` [Sr^2+], in assay [2], the “Vmax(app)” value was found to be 0.17 mol/min/mg, the “% activity (Vmax or Vpeak)” value is listed as 1%, the metal activation profile result was “did not catalyze ATP hydrolysis” and the “n (Hill)” value is 1. Besides, in assay [3] (10 mM MgCl2), the “effect on ATP hydrolysis rate” value is on record as “negligible effects”.
The corresponding values for `[O]=[V+2]` [VO^2+] are 0.78 mol/min/mg, 6%, “Michaelis-Menten kinetics”, 1 and “negligible effects”.
On to `[Cl-].[Cl-].[Zn+2]` [Zn^2+], for which the “activity remaining at 190 μM total metal” value in assay [2] (190 μM [Zn^2+]total) turned out to be 50%. Besides, the “velocity at 1000 μM total metal” value in assay [2] (1000 μM [Zn^2+]total) is given as “zero”. Further, in assay [2], the “effect … in the absence of MgCl2” value was “activated”, the “Vpeak(app)” value came to 9.98 mol/min/mg, the “% activity (Vmax or Vpeak)” value is given as 81% and the “% efficiency (Vmax/KM or Vpeak/KM)” value is 51%. In assay [2], the metal activation profile result is “peak velocities”, the peak velocity came to 9.4 µmol/min/mg, the “total metal concentration” value came to 125 µM and the “n (Hill)” value is on record as 5.5. In addition, the IC50 in assay [2] (read-out: I50, rho poly(C)-dependent ATP hydrolysis, 0 mM MgCl2, estimated) was 190 µM. For the same molecule, in assay [3] (10 mM MgCl2), the “rho inhibition at 4000 μM” value is on record as roughly 50%, the “effect on ATP hydrolysis rate” value is listed as “inhibited” and the IC50 came out at 4000 µM. Further, in assay [3] (poly(C) concentration increased 10-fold), the “change of I50 on 10-fold poly(C)” value is “increased only slightly”. The IC50 in assay [3] (1 mM MgCl2, estimated) is 190 µM.
For the molecule `C=C1CCO[C@]2([C@@H](O)[C@@](C)(O)CO)NC(=O)[C@@]1(O)NC2=O` [bicyclomycin, Bicyclomycin], the “effect on RecA poly(dT)-dependent ATP hydrolysis” value at E. coli RecA is reported as “no loss in RecA ATPase activity”. For the same molecule, in assay [4], the “inhibition kinetics with respect to ribo(C)10” value is recorded as “mixed inhibition pattern”.
